From patent US11104648B2, “Pyrazole derivative” (Zhejiang Research Institute of Chemical Industry Co., Ltd., priority 2018, dated 2021)
Where two headings read alike, the source gives them in different places.

Legend:
Type in all cases: in vivo
[1] = test system: adult Tetranychus cinnabarinus; experiment: Activity assay of adult Tetranychus cinnabarinus (whole-plant spray on bean seedlings); details: 48 h; for pest or weed control at 1.25 µg/mL: concentration 1.25 mg/L
How it was run: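 Whole plants sprayed after adult mite inoculation and initial census, using compound dissolved in DMF and made up with 1‰ Tween 80 water (DMF not above 10%). Mortality derived from survivor counts at 48 h after treatment. Each treatment run in triplicate.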

[2] = test system: Tetranychus cinnabarinus Nymphs; experiment: Activity assay of Tetranychus cinnabarinus nymphs (spray on broad bean leaves)
How it was run: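 Mortality, judged as no response to gentle touch, was scored 48 h after spraying Tetranychus cinnabarinus nymphs on broad bean leaves (eggs from females removed after 24 h). Test solutions: DMF-dissolved compound, ≤10% DMF, in 1‰ Tween 80; 26±2° C., 70%–80% RH, 16 h light; triplicate, blank control.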

[3] = test system: Eggs of Tetranychus Cinnabarinus; experiment: Activity assay of eggs of Tetranychus cinnabarinus (spray method, ovicidal); details: Tetranychus cinnabarinus; for pest or weed control at 2 µg/mL: concentration 2 mg/L
How it was run: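 Ovicidal spray test: compound dissolved in DMF, diluted with 1‰ Tween 80 (DMF ≤10%), sprayed on eggs laid during 24 h by females on broad bean leaves. Culture at 26±2° C, 70–80% RH, 16 h photoperiod; non-hatched eggs scored as dead when blank control hatched; three repeats.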

[4] = concentration 2.5 mg/L, read-out: adult mite-killing activity
[5] = 48 h, concentration 2.5 mg/L, read-out: nymph-killing activity
[6] = concentration 5 mg/L, spray, non-incubated eggs counted as dead, read-out: ovicidal activity
[7] = adult mites, parallel determination, read-out: Death rate (%)
[8] = read-out: adult mite-killing activity
[9] = 48 h, concentration 2 mg/L, read-out: nymph-killing activity
[10] = 48 h, nymphs, concentration 0.5 mg/L, parallel determination, read-out: Death rate (%)
[11] = spray, read-out: ovicidal activity
[12] = eggs, parallel determination, read-out: Death rate (%)
[13] = concentration 2.5 mg/L, 48 h, read-out: nymph-killing activity

Compound	pest or weed control at 2.5 µg/mL [1, 4]	pest or weed control at 2.5 µg/mL [2, 5]	pest or weed control at 5 µg/mL [3, 6]	other results
CSCCOC(=O)OC(C)O/C(=C(/C#N)c1ccc(C(C)(C)C)cc1)c1cc(C)nn1C (stereo not drawn) [Compound 503]	≥ 90%	≥ 95%	≥ 90%	
CCCCC(=O)OCO/C(=C(/C#N)c1ccc(C(C)(C)C)cc1)c1c(Cl)c(C)nn1CC [Compound 306]	≥ 90%	≥ 95%	≥ 90%	
C#CCOC(=O)OC(C)O/C(=C(/C#N)c1ccc(C(C)(C)C)cc1)c1cc(C)nn1C (stereo not drawn) [Compound 508]	≥ 90%	≥ 95%	≥ 90%	
CCCCC(=O)OCO/C(=C(/C#N)c1ccc(C(C)(C)C)cc1)c1c(C)c(C)nn1CC [Compound 381]	≥ 90%	≥ 95%	≥ 90%	
CCn1nc(C)cc1/C(OCOC(=O)C1CC1)=C(\C#N)c1ccc(C(C)(C)C)cc1 [Compound 234]	≥ 90%	≥ 95%	≥ 90%	pest or weed control at 1.25 µg/mL [1, 7]: 100%; pest or weed control at 1.25 µg/mL [1, 8]: ≥ 90%; pest or weed control at 2 µg/mL [2, 9]: ≥ 90%; pest or weed control at 0.5 µg/mL [2, 10]: 96%; pest or weed control at 2 µg/mL [3, 11]: ≥ 90%; pest or weed control at 2 µg/mL [3, 12]: 100%
CCCCC(=O)OCO/C(=C(/C#N)c1ccc(C(C)(C)C)cc1)c1cc(C)nn1CC [Compound 231]	≥ 90%	≥ 95%	≥ 90%	
CCC(=O)OCO/C(=C(/C#N)c1ccc(C(C)(C)C)cc1)c1c(C)c(C)nn1C [Compound 152]	≥ 90%	≥ 95%	≥ 90%	
Cc1cc(/C(OCOC(=O)Cc2ccccc2)=C(\C#N)c2ccc(C(C)(C)C)cc2)n(C)n1 [Compound 15]	≥ 90%		≥ 90%	pest or weed control at 2.5 µg/mL [2, 13]: ≥ 95%
CCn1nc(C)cc1/C(OCOC(=O)C(C)(C)C)=C(\C#N)c1ccc(C(C)(C)C)cc1 [Compound 230]	≥ 90%	≥ 95%	≥ 90%	pest or weed control at 1.25 µg/mL [1, 7]: 100%; pest or weed control at 1.25 µg/mL [1, 8]: ≥ 90%; pest or weed control at 2 µg/mL [2, 9]: ≥ 90%; pest or weed control at 0.5 µg/mL [2, 10]: 98%; pest or weed control at 2 µg/mL [3, 11]: ≥ 90%; pest or weed control at 2 µg/mL [3, 12]: 100%
CCn1nc(C)cc1/C(OC(C)OC(=O)C(C)(C)CC)=C(\C#N)c1ccc(C(C)(C)C)cc1 (stereo not drawn) [Compound 266]	≥ 90%	≥ 95%	≥ 90%	
Cc1cc(/C(OC(C)OC(=O)OCCCl)=C(\C#N)c2ccc(C(C)(C)C)cc2)n(C)n1 (stereo not drawn) [Compound 494]	≥ 90%	≥ 95%	≥ 90%	
CCn1nc(C)c(C)c1/C(OC(C)OC(=O)C(C)(C)CC)=C(\C#N)c1ccc(C(C)(C)C)cc1 (stereo not drawn) [Compound 416]	≥ 90%	≥ 95%	≥ 90%	
CCn1nc(C)cc1/C(OC(C)OC(=O)OCC(F)(F)F)=C(\C#N)c1ccc(C(C)(C)C)cc1 (stereo not drawn) [Compound 595]	≥ 90%	≥ 95%	≥ 90%	
Cc1nn(C)c(/C(OC(C)OC(=O)C(C)C)=C(\C#N)c2ccc(C(C)(C)C)cc2)c1Cl (stereo not drawn) [Compound 104]	≥ 90%	≥ 95%	≥ 90%	
Cc1cc(/C(OCOC(=O)C(C)(C)C)=C(\C#N)c2ccc(C(C)(C)C)cc2)n(C)n1 [Compound 5]	≥ 90%	≥ 95%	≥ 90%	
CSCC(=O)OC(C)O/C(=C(/C#N)c1ccc(C(C)(C)C)cc1)c1c(Cl)c(C)nn1C (stereo not drawn) [Compound 110]	≥ 90%	≥ 95%	≥ 90%	

Compound	pest or weed control at 2.5 µg/mL [1, 4]	pest or weed control at 2.5 µg/mL [2, 5]	pest or weed control at 5 µg/mL [3, 6]	other results
Cc1nn(C)c(/C(OC(C)OC(=O)Cc2ccccc2)=C(\C#N)c2ccc(C(C)(C)C)cc2)c1C (stereo not drawn) [Compound 190]	≥ 90%		≥ 90%	pest or weed control at 2.5 µg/mL [2, 13]: ≥ 95%
Cc1nn(C)c(/C(OCOC(=O)Cc2ccccc2)=C(\C#N)c2ccc(C(C)(C)C)cc2)c1Cl [Compound 90]	≥ 90%		≥ 90%	pest or weed control at 2.5 µg/mL [2, 13]: ≥ 95%
Cc1nn(C)c(/C(OCOC(=O)C2CCCCC2)=C(\C#N)c2ccc(C(C)(C)C)cc2)c1Cl [Compound 86]	≥ 90%	≥ 95%	≥ 90%	
Cc1nn(C)c(/C(OC(C)OC(=O)C2CC2)=C(\C#N)c2ccc(C(C)(C)C)cc2)c1C (stereo not drawn) [Compound 184]	≥ 90%	≥ 95%	≥ 90%	
CCn1nc(C)c(Cl)c1/C(OCOC(=O)CF)=C(\C#N)c1ccc(C(C)(C)C)cc1 [Compound 312]				pest or weed control at 2.5 µg/mL [1, 8]: ≥ 90%; pest or weed control at 2.5 µg/mL ([2]; 48 h, read-out: nymph-killing activity): ≥ 95%; pest or weed control at 5 µg/mL ([3]; read-out: ovicidal activity): ≥ 90%
CCn1nc(C)cc1/C(OC(C)OC(=O)Cc1ccccc1)=C(\C#N)c1ccc(C(C)(C)C)cc1 (stereo not drawn) [Compound 265]	≥ 90%		≥ 90%	pest or weed control at 2.5 µg/mL [2, 13]: ≥ 95%
CCn1nc(C)c(Cl)c1/C(OC(C)OC(=O)C(F)(F)F)=C(\C#N)c1ccc(C(C)(C)C)cc1 (stereo not drawn) [Compound 338]	≥ 90%	≥ 95%	≥ 90%	
COCC(=O)OC(C)O/C(=C(/C#N)c1ccc(C(C)(C)C)cc1)c1c(Cl)c(C)nn1C (stereo not drawn) [Compound 108]	≥ 90%	≥ 95%	≥ 90%	
CCOC(=O)OC(C)O/C(=C(/C#N)c1ccc(C(C)(C)C)cc1)c1cc(C)nn1CC (stereo not drawn) [Compound 580]	≥ 90%	≥ 95%	≥ 90%	pest or weed control at 1.25 µg/mL [1, 8]: ≥ 90%; pest or weed control at 2 µg/mL [2, 9]: ≥ 90%; pest or weed control at 2 µg/mL [3, 11]: ≥ 90%
Cc1nn(C)c(/C(OCOC(=O)C(C)(C)C)=C(\C#N)c2ccc(C(C)(C)C)cc2)c1Cl [Compound 80]	≥ 90%	≥ 95%	≥ 90%	
Cc1cc(/C(OC(C)OC(=O)C2CCCCC2)=C(\C#N)c2ccc(C(C)(C)C)cc2)n(C)n1 (stereo not drawn) [Compound 36]	≥ 90%	≥ 95%	≥ 90%	
Cc1cc(/C(OCOC(=O)C2CCCCC2)=C(\C#N)c2ccc(C(C)(C)C)cc2)n(C)n1 [Compound 11]	≥ 90%	≥ 95%	≥ 90%	
CCn1nc(C)cc1/C(OCOC(=O)OCCOC)=C(\C#N)c1ccc(C(C)(C)C)cc1 [Compound 564]	≥ 90%	≥ 95%	≥ 90%	
CCSC(=O)OCO/C(=C(/C#N)c1ccc(C(C)(C)C)cc1)c1cc(C)nn1C [Compound 480]	≥ 90%	≥ 95%	≥ 90%	
CCn1nc(C)c(C)c1/C(OCOC(=O)C(C)(C)CC)=C(\C#N)c1ccc(C(C)(C)C)cc1 [Compound 391]	≥ 90%	≥ 95%	≥ 90%	
Cc1cc(/C(OC(C)OC(=O)C2CC2)=C(\C#N)c2ccc(C(C)(C)C)cc2)n(C)n1 (stereo not drawn) [Compound 34]	≥ 90%	≥ 95%	≥ 90%	
